Laboratory results published in patent US9133207B2, “Tetrandrine derivatives with substituted 5-carbon, preparation method and use thereof” (Hangzhou Bensheng Pharmaceutical Co., Ltd., priority 2011, dated 2015).
Converted amounts (≈) assume the structure as drawn.

Key:
[1] = test system: RPMI8226 (multiple myeloma); assay: Multiple myeloma cell growth inhibition, MTT, 72 h (Example 6); type: cell-based, human; settings: Homo sapiens, RPMI-8226; 72 h, MTT, RPMI8226
Method in brief: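 Viability was read by MTT after 72 h of compound exposure at 37 °C, 5% CO2. Each well held 6000 RPMI8226 cells in 1640 medium containing 10% fetal bovine serum, with derivatives added at various concentrations.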

[2] = test system: U87 MG (malignant glioma cell); assay: Solid tumor cell growth inhibition, MTT, 72 h (Example 7); type: cell-based; settings: Homo sapiens, U-87 MG
Method in brief: (§1)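 Cell viability was quantified by MTT 72 h after adding derivatives at different concentrations to 4000 cells/well. Untreated cells served as the 100% reference.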

A549 (human lung cancer) = assay: as above; type: cell-based; settings: Homo sapiens; 72 h, MTT, A549
Method in brief: as §1

[3] = test system: RKO (human colon adenocarcinoma cell); assay: as above; type: cell-based; settings: Homo sapiens; 72 h, MTT, RKO
Method in brief: as §1

[4] = test system: Huh7 (human liver cancer cell); assay: as above; type: cell-based; settings: Homo sapiens; 72 h, MTT, Huh-7
Method in brief: as §1

[5] = test system: MGC 803 (human gastric cancer cell); assay: as above; type: cell-based; settings: Homo sapiens
Method in brief: as §1

[6] = test system: Becap37 (human breast cancer cell); assay: as above; type: cell-based; settings: Homo sapiens; 72 h, MTT, Becap-37
Method in brief: as §1

[7] = test system: CNE (nasopharyngeal carcinoma cell); assay: as above; type: cell-based; settings: Homo sapiens
Method in brief: as §1

[8] = test system: SK-OV-3 (ovarian cancer cell); assay: as above; type: cell-based; settings: Homo sapiens
Method in brief: as §1

[9] = test system: Hela (human cervical cancer cell); assay: as above; type: cell-based; settings: Homo sapiens; 72 h, MTT, Hela
Method in brief: as §1

[10] = test system: CaES-17 (esophageal cancer cell); assay: as above; type: cell-based, human; settings: Homo sapiens, CaEs17; 72 h, MTT, CAES-17
Method in brief: as §1

MG63 (osteosarcoma) = assay: as above; type: cell-based, human; settings: Homo sapiens; 72 h, MTT, MG-63
Method in brief: as §1

[11] = test system: Hep-2 (laryngeal carcinoma); assay: as above; type: cell-based, human; settings: Homo sapiens; 72 h, MTT, Hep 2
Method in brief: as §1

[12] = test system: PANC-1 (pancreatic cancer); assay: as above; type: cell-based, human; settings: Homo sapiens; 72 h, MTT, PANC-1
Method in brief: as §1

PC-3 (prostate cancer) = assay: as above; type: cell-based, human; settings: Homo sapiens; 72 h, MTT, PC-3
Method in brief: as §1

[13] = test system: H9 (acute lymphoblastic leukemia, ALL); assay: Leukemia cell growth inhibition, MTT, 72 h (Example 5); type: cell-based, human; settings: Homo sapiens; 72 h, MTT
Method in brief: (§2)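 An MTT read-out of viable cell concentration follows 72 h incubation (37° C, 5% CO2) of 6000 cells/well in 10% FBS-supplemented 1640 medium with the 5-substituted derivatives at varying concentrations.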

[14] = test system: Jurkat (acute lymphoblastic leukemia, ALL); assay: as above; type: cell-based, human; settings: Homo sapiens, Jurkat; 72 h, MTT
Method in brief: as §2

[15] = test system: NB4 (acute promyelocytic leukemia, AML); assay: as above; type: cell-based, human; settings: Homo sapiens; 72 h, MTT
Method in brief: as §2

[16] = test system: Kasumi-1 (acute myeloid leukemia M2 type, AML-M2); assay: as above; type: cell-based, human; settings: Homo sapiens, Kasumi 1
Method in brief: as §2

[17] = test system: K562/adr (drug-resistant, chronic myeloid leukemia, CML); assay: as above; type: cell-based, human; settings: Homo sapiens, K562/Adr; 72 h, MTT
Method in brief: as §2

Compound	IC50 [1] [µg/mL]	IC90 [1] [µg/mL]	IC50 [2] [µg/mL]	IC90 [2] [µg/mL]	IC50 (A549 (human lung cancer)) [µg/mL]	IC90 (A549 (human lung cancer)) [µg/mL]	IC50 [3] [µg/mL]	IC90 [3] [µg/mL]	IC50 [4] [µg/mL]	IC90 [4] [µg/mL]	IC50 [5] [µg/mL]	IC90 [5] [µg/mL]	IC50 [6] [µg/mL]	IC90 [6] [µg/mL]	IC50 [7] [µg/mL]	IC90 [7] [µg/mL]	IC50 [8] [µg/mL]	IC90 [8] [µg/mL]	IC50 [9] [µg/mL]	IC90 [9] [µg/mL]	further results
CNCc1c2c3c(c(OC)c1OC)Oc1cc4c(cc1OC)CCN(C)[C@H]4Cc1ccc(cc1)Oc1cc(ccc1OC)C[C@@H]3N(C)CC2 [BS-TE-326]	0.27 (≈ 0.406 µM)	0.64 (≈ 0.961 µM)	0.75 (≈ 1.13 µM)	2.4 (≈ 3.6 µM)	1.8 (≈ 2.7 µM)	4.9 (≈ 7.36 µM)	0.87 (≈ 1.31 µM)	2.22 (≈ 3.33 µM)	1.15 (≈ 1.73 µM)	1.76 (≈ 2.64 µM)	1.46 (≈ 2.19 µM)	5.38 (≈ 8.08 µM)	1.3 (≈ 1.95 µM)	2 (≈ 3 µM)	3.2 (≈ 4.81 µM)	4.95 (≈ 7.43 µM)	1.91 (≈ 2.87 µM)	5.21 (≈ 7.82 µM)	1.9 (≈ 2.85 µM)	3.01 (≈ 4.52 µM)	IC50 [10]: 2.5 µg/mL (≈ 3.75 µM); IC90 [10]: 6.18 µg/mL (≈ 9.28 µM); IC50 (MG63 (osteosarcoma)): 1.4 µg/mL (≈ 2.1 µM); IC90 (MG63 (osteosarcoma)): 1.9 µg/mL (≈ 2.85 µM); IC50 [11]: 3.62 µg/mL (≈ 5.44 µM); IC90 [11]: 6.57 µg/mL (≈ 9.87 µM); IC50 [12]: 1.63 µg/mL (≈ 2.45 µM); IC90 [12]: 5.16 µg/mL (≈ 7.75 µM); IC50 (PC-3 (prostate cancer)): 3.6 µg/mL (≈ 5.41 µM); IC90 (PC-3 (prostate cancer)): 5.8 µg/mL (≈ 8.71 µM); IC50 [13]: 0.88 µg/mL (≈ 1.32 µM); IC90 [13]: 1.35 µg/mL (≈ 2.03 µM); IC50 [14]: 1.41 µg/mL (≈ 2.12 µM); IC90 [14]: 3.98 µg/mL (≈ 5.98 µM); IC50 [15]: 1.2 µg/mL (≈ 1.8 µM); IC90 [15]: 1.8 µg/mL (≈ 2.7 µM); IC50 [16]: 0.96 µg/mL (≈ 1.44 µM); IC90 [16]: 2.37 µg/mL (≈ 3.56 µM); IC50 [17]: 0.89 µg/mL (≈ 1.34 µM); IC90 [17]: 2.14 µg/mL (≈ 3.21 µM)
COc1ccc2cc1Oc1ccc(cc1)C[C@H]1c3cc(c(OC)cc3CCN1C)Oc1c(OC)c(OC)c(CNC3CC3)c3c1[C@H](C2)N(C)CC3 [BS-TE-301]	0.06 (≈ 0.0867 µM)	2.95 (≈ 4.26 µM)	0.69 (≈ 0.997 µM)	3.05 (≈ 4.41 µM)	5.1 (≈ 7.37 µM)	> 16	1.22 (≈ 1.76 µM)	2.94 (≈ 4.25 µM)	1.27 (≈ 1.84 µM)	2.4 (≈ 3.47 µM)	1.74 (≈ 2.51 µM)	7.1 (≈ 10.3 µM)	2.3 (≈ 3.32 µM)	5.6 (≈ 8.09 µM)	3.7 (≈ 5.35 µM)	6.2 (≈ 8.96 µM)	3.77 (≈ 5.45 µM)	24.3 (≈ 35.1 µM)	1.97 (≈ 2.85 µM)	3.83 (≈ 5.54 µM)	IC50 [10]: 2.93 µg/mL (≈ 4.23 µM); IC90 [10]: 22.3 µg/mL (≈ 32.2 µM); IC50 (MG63 (osteosarcoma)): 2 µg/mL (≈ 2.89 µM); IC90 (MG63 (osteosarcoma)): 3.8 µg/mL (≈ 5.49 µM); IC50 [11]: 3.5 µg/mL (≈ 5.06 µM); IC90 [11]: 12.5 µg/mL (≈ 18 µM); IC50 [12]: 2.79 µg/mL (≈ 4.03 µM); IC90 [12]: 7.35 µg/mL (≈ 10.6 µM); IC50 (PC-3 (prostate cancer)): 3.02 µg/mL (≈ 4.36 µM); IC90 (PC-3 (prostate cancer)): 4.68 µg/mL (≈ 6.76 µM); IC50 [13]: 1.02 µg/mL (≈ 1.47 µM); IC90 [13]: 2.12 µg/mL (≈ 3.06 µM); IC50 [14]: 1.09 µg/mL (≈ 1.58 µM); IC90 [14]: 6.61 µg/mL (≈ 9.55 µM); IC50 [15]: 0.8 µg/mL (≈ 1.16 µM); IC90 [15]: 2 µg/mL (≈ 2.89 µM); IC50 [16]: 1.67 µg/mL (≈ 2.41 µM); IC90 [16]: 5.53 µg/mL (≈ 7.99 µM); IC50 [17]: 0.49 µg/mL (≈ 0.708 µM); IC90 [17]: 2.81 µg/mL (≈ 4.06 µM)
